Test results: patent US20260167654A1, “PLANT CELL WALL-DISSOLVING AGENT” (Kanazawa University, priority 2022, published 2026)

Legend:
[1] = State of the zwitterions at 25° C.; assay type: physicochemical; settings: room temperature (25° C.)
Experimental: C1imC2OE3C (R^1═CH3, A=imidazolium cation, R^3═CH2CH2, n=3, and B=—COO^−) obtained in Synthesis Example 1 and OE2imC2OE3C(R^1═H3C(OCH2CH2)2, A=imidazolium cation, R^3═CH2CH2, n=3, and B=—COO^−) obtained in Synthesis Example 2 were both liquid at room temperature (25° C.).

[2] = Cellulose solubility (cellulose added in 1 wt % steps, heating and stirring 1 hour, visual); assay type: physicochemical
Experimental: The cellulose solubility of C1imC2OE3C obtained in Synthesis Example 1, OE2imC2OE3C obtained in Synthesis Example 2, and OE2imC3C (R^1═H3C(OCH2CH2)2, A=imidazolium cation, B=—COO^−, and n=0 (a compound having no oxyalkylene structure between the cationic and anionic moieties; the compound described in Non-Patent Literature 2)) as a comparative example was measured. […] The concentration at which cellulose dissolution was confirmed was visually measured.
Thus, when heating to 80° C., a stirrer rotated in C1imC2P and started to rotate smoothly at 120° C. Accordingly, a cellulose solubility experiment was performed at 120° C. Avicel was added in increments of 1 wt %, and when dissolved over 1 hour, additional Avicel was added in increments of 1 wt %. As a result of the experiment, C1imC2P dissolved 4 wt % Avicel.

[3] = Viscosity measurement (Brookfield viscometer, CPE52 spindle); assay type: physicochemical
Experimental: The viscometer used was Brookfield LVDV2TCP with a CPE52 spindle, or Brookfield RVDV2T with a CPE52 spindle.
C1imC2OE3C obtained in Synthesis Example 1 and OE2imC2OE3C obtained in Synthesis Example 2 were measured for viscosity at 80° C. The viscometer used was Brookfield LVDV2TCP with a CPE52 spindle. The viscometer was heated to 80° C. by passing warm water therethrough, and the viscosity of the samples was measured.

[4] = Differential scanning calorimetry; assay type: physicochemical
Experimental: Experimental method: Under N2 atmosphere, liquid nitrogen was used during cooling. After the temperature was increased at a rate of 10° C./min to 20° C. below the pyrolysis point starting at 25° C., two sets of “cooling to −100° C. at a rate of −10° C./min→heating to 20° C. below the pyrolysis point at a rate of 10° C./min” were repeated (holding time: 5 minutes for each stage), followed by cooling down to 25° C.
C1imC2OE3C obtained in Synthesis Example 1 was subjected to differential scanning calorimetry.

[5] = TG-DTA pyrolysis temperature (weight loss on heating at 10° C./min); assay type: physicochemical
Experimental: Experimental method: Under N2 atmosphere, the temperature was increased to 500° C. at a rate of 10° C./min starting at room temperature. The pyrolysis point was evaluated at the intersection of the tangent lines between the steady state and the decomposition.
C1imC2OE3C obtained in Synthesis Example 1 was heated at a rate of 10° C./min, and the temperature at which the weight loss occurred (pyrolysis temperature) was measured. As a result, this compound was thermally decomposed at about 249° C. and was stable up to 249° C.

Kluyveromyces marxianus = assay: Toxicity to yeast (OD600 of culture in liquid medium); assay type: cell-based; settings: culturing at 50° C., concentration and time of the value not stated
Experimental: The toxicity of C1imC2P to yeast was examined. The yeast used was Kluyveromyces marxianus. C1imC2P was added to a liquid medium at concentrations of 0 mol/L, 0.01 mol/L, 0.05 mol/L, 0.1 mol/L, 0.5 mol/L and 1.0 mol/L respectively. This was inoculated with bacteria, and while culturing at 50° C., OD600 was measured with a plate reader 0, 2, 4, and 6 hours later. OD600 indicates the density of bacterial cells. Further, relative OD600 is a relative parameter when the control is 1.00. A higher value of relative OD600 indicates a lower toxicity of the zwitterion. The relative OD600 of C1imC2P was 0.77, indicating low toxicity.

SMILES | State at 25° C. [1] | Cellulose solubility ([2]; 100° C.) | Cellulose solubility ([2]; 120° C.) | Viscosity at 80° C. [3] | did not change / in a liquid state from room temperature up to temperature [4] | stable (does not decompose) up to temperature [5] | pyrolysis temperature (temperature at which the weight loss occurred) ([5]; heated at a rate of 10° C./min) | relative OD600 (control is 1.00) (Kluyveromyces marxianus) | Cellulose solubility (Avicel dissolved) ([2]; 120° C., Avicel added in increments of 1 wt %, 1 hour each) | Viscosity (in words) ([3]; 100 wt % zwitterion, room temperature (25° C.))
COCCOCC[n+]1ccn(CCOCCOCCOCCC(=O)[O-])c1 [OE2imC2OE3C] | liquid | 11 wt % | 11 wt % | 810 mPa · s |  |  |  |  |  | 
COCCOCCn1cc[n+](CCCC(=O)[O-])c1 [OE2imC3C, reference compound] | solid | 6 wt % | 10 wt % | 940 mPa · s |  |  |  |  |  | 
C[n+]1ccn(CCOCCOCCOCCC(=O)[O-])c1 [Zwitterion C1imC2OE3C] | liquid | 11 wt % | 14 wt % | 2,500 mPa · s | around 250 °C | up to 249 °C | about 249 °C |  |  | 
C[n+]1ccn(CCOP(=O)([O-])O)c1 [Zwitterion C1imC2P] | liquid |  |  |  |  |  |  | 0.77 | 4 wt % | very high viscosity
